Reference: ChEMBL document CHEMBL1201862, “PubChem BioAssay data set” (2004)
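Where inhibition never reached the appropriate level, the endpoint shown equals the highest concentration tested. Otherwise, values were interpolated linearly from a five-concentration, 48-hour dose response in 96-well plates. GI50: concentration for 50% inhibition of growth.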 Calls of active or inactive are those of the source. Rule as the data show it: active = GI50 up to about 1.1 µM and inactive = higher.

Experiments:
Test in all cases: NCI anticancer screen, dose series, 48 h
[1] = tested on: SF-268
[2] = tested on: SK-MEL-5
[3] = tested on: A549
[4] = tested on: DU-145
[5] = tested on: UO-31
[6] = tested on: HT-29
[7] = tested on: NCI/ADR-RES
[8] = tested on: OVCAR-4
[9] = tested on: NCI-H226
[10] = tested on: SNB-19
[11] = tested on: OVCAR-5
[12] = tested on: OVCAR-8
[13] = tested on: HOP-62
[14] = tested on: OVCAR-3
[15] = tested on: HCT-15
[16] = tested on: HL-60
[17] = tested on: NCI-H522
[18] = tested on: TK-10
[19] = tested on: K562
[20] = tested on: HCT-116
[21] = tested on: RPMI-8226
[22] = tested on: ACHN
[23] = tested on: SK-MEL-2
[24] = tested on: SF-295
[25] = tested on: 786-0
[26] = tested on: SN12C
[27] = tested on: MDA-MB-435
[28] = tested on: BT-549
[29] = tested on: CAKI-1
[30] = tested on: SK-OV-3
[31] = tested on: NCI-H460
[32] = tested on: MCF7
[33] = tested on: M14
[34] = tested on: PC-3
[35] = tested on: SW-620
[36] = tested on: HOP-92
[37] = tested on: EKVX
[38] = tested on: RXF 393
[39] = tested on: MDA-MB-231
[40] = tested on: HCC 2998
[41] = tested on: UACC-257
[42] = tested on: LOX IMVI
[43] = tested on: SNB-75
[44] = tested on: KM12
[45] = tested on: COLO 205
[46] = tested on: T47D
[47] = tested on: IGROV-1
[48] = tested on: MOLT-4
[49] = tested on: NCI-H23
[50] = tested on: MDA-N
[51] = tested on: U-251
[52] = tested on: SK-MEL-28
[53] = tested on: Hs-578T
[54] = tested on: UACC-62
[55] = tested on: CCRF-CEM
[56] = tested on: SF-539
[57] = tested on: Malme-3M
[58] = tested on: A498
[59] = tested on: SR

## COC1C(O)=C2C(=O)OC(C)(O)/C=C/C=C\C=C/C=C/C(c3ccccc3)NC(=O)/C=C/C=C/C=C/C=C/C2(C)C1O (stereo not given)
[1]
  GI50: 0.0171 µM (active)
[2]
  GI50: 0.0356 µM (active)
[3]
  GI50: 0.00105 µM (active)
[4]
  GI50: 0.00533 µM (active)
[5]
  GI50: 0.00984 µM (active)
[6]
  GI50: < 0.001 µM (active)
[7]
  GI50: 0.00861 µM (active)
[8]
  GI50: 0.0678 µM (active)
[9]
  GI50: 0.00646 µM (active)
[10]
  GI50: 0.0258 µM (active)
[11]
  GI50: 0.129 µM (active)
[12]
  GI50: 0.0034 µM (active)
[13]
  GI50: 0.0121 µM (active)
[14]
  GI50: 0.0445 µM (active)
[15]
  GI50: < 0.001 µM
[16]
  GI50: 0.00348 µM (active)
[17]
  GI50: < 0.001 µM (active)
[18]
  GI50: 0.00871 µM (active)
[19]
  GI50: 0.248 µM (active)
[20]
  GI50: 0.00403 µM (active)
[21]
  GI50: 0.0111 µM (active)
[22]
  GI50: 0.00488 µM (active)
[23]
  GI50: 0.0361 µM (active)
[24]
  GI50: 0.0111 µM (active)
[25]
  GI50: 0.00787 µM (active)
[26]
  GI50: 0.0142 µM (active)
[27]
  GI50: 0.0193 µM (active)
[28]
  GI50: 0.0128 µM (active)
[29]
  GI50: 0.0175 µM (active)
[30]
  GI50: 0.0253 µM (active)
[31]
  GI50: < 0.001 µM (active)
[32]
  GI50: 0.001 µM (active)
[33]
  GI50: 0.0792 µM (active)
[34]
  GI50: 0.00339 µM (active)
[35]
  GI50: 0.00139 µM (active)
[36]
  GI50: 0.00146 µM (active)
[37]
  GI50: 0.0118 µM (active)
[38]
  GI50: 0.0184 µM (active)
[39]
  GI50: 0.0101 µM (active)
[40]
  GI50: 0.0122 µM (active)
[41]
  GI50: 0.0363 µM (active)
[42]
  GI50: 0.00838 µM (active)
[43]
  GI50: 0.028 µM (active)
[44]
  GI50: 0.00679 µM (active)
[45]
  GI50: 0.00124 µM (active)
[46]
  GI50: 0.0152 µM (active)
[47]
  GI50: 0.0165 µM (active)
[48]
  GI50: 0.0102 µM (active)
[49]
  GI50: 0.0158 µM (active)
[50]
  GI50: 0.0275 µM (active)
[51]
  GI50: 0.00522 µM (active)
[52]
  GI50: 0.0461 µM (active)
[53]
  GI50: 0.0419 µM (active)
[54]
  GI50: 0.114 µM (active)
[55]
  GI50: 0.383 µM (active)
[56]
  GI50: 0.0179 µM (active)
[57]
  GI50: 0.0101 µM (active)
[58]
  GI50: 0.0137 µM (active)

## CN(/N=C/c1cccs1)c1ccc([N+](=O)[O-])cc1[N+](=O)[O-]
[1]
  GI50: > 100 µM (inactive)
[2]
  GI50: > 100 µM (inactive)
[3]
  GI50: > 100 µM (inactive)
[4]
  GI50: > 100 µM (inactive)
[5]
  GI50: > 100 µM (inactive)
[6]
  GI50: > 100 µM (inactive)
[7]
  GI50: > 100 µM (inactive)
[8]
  GI50: > 100 µM (inactive)
[10]
  GI50: > 100 µM (inactive)
[12]
  GI50: > 100 µM (inactive)
[13]
  GI50: > 100 µM (inactive)
[14]
  GI50: > 100 µM (inactive)
[15]
  GI50: > 100 µM
[16]
  GI50: > 100 µM (inactive)
[17]
  GI50: > 100 µM (inactive)
[18]
  GI50: > 100 µM (inactive)
[19]
  GI50: > 100 µM (inactive)
[20]
  GI50: > 100 µM (inactive)
[21]
  GI50: > 100 µM (inactive)
[22]
  GI50: > 100 µM (inactive)
[24]
  GI50: > 100 µM (inactive)
[25]
  GI50: > 100 µM (inactive)
[26]
  GI50: > 100 µM (inactive)
[27]
  GI50: > 100 µM (inactive)
[28]
  GI50: > 100 µM (inactive)
[29]
  GI50: > 100 µM (inactive)
[30]
  GI50: > 100 µM (inactive)
[31]
  GI50: > 100 µM (inactive)
[32]
  GI50: > 100 µM (inactive)
[33]
  GI50: > 100 µM (inactive)
[34]
  GI50: > 100 µM (inactive)
[35]
  GI50: > 100 µM (inactive)
[37]
  GI50: > 100 µM (inactive)
[38]
  GI50: > 100 µM (inactive)
[39]
  GI50: > 100 µM (inactive)
[40]
  GI50: > 100 µM (inactive)
[59]
  GI50: > 100 µM (inactive)
[41]
  GI50: > 100 µM (inactive)
[43]
  GI50: 77.8 µM (inactive)
[44]
  GI50: > 100 µM (inactive)
[45]
  GI50: > 100 µM (inactive)
[46]
  GI50: > 100 µM (inactive)
[47]
  GI50: > 100 µM (inactive)
[48]
  GI50: > 100 µM (inactive)
[49]
  GI50: > 100 µM (inactive)
[50]
  GI50: > 100 µM (inactive)
[51]
  GI50: > 100 µM (inactive)
[52]
  GI50: > 100 µM (inactive)
[53]
  GI50: > 100 µM (inactive)
[54]
  GI50: > 100 µM (inactive)
[55]
  GI50: > 100 µM (inactive)
[56]
  GI50: > 100 µM (inactive)

## Cc1cc(C)c(-n2[nH]c(=O)n(C)c2=O)c(C)c1
[1]
  GI50: > 100 µM (inactive)
[2]
  GI50: > 100 µM (inactive)
[3]
  GI50: > 100 µM (inactive)
[4]
  GI50: > 100 µM (inactive)
[5]
  GI50: > 100 µM (inactive)
[6]
  GI50: > 100 µM (inactive)
[7]
  GI50: > 100 µM (inactive)
[8]
  GI50: > 100 µM (inactive)
[9]
  GI50: > 100 µM (inactive)
[10]
  GI50: > 100 µM (inactive)
[11]
  GI50: > 100 µM (inactive)
[12]
  GI50: > 100 µM (inactive)
[14]
  GI50: > 100 µM (inactive)
[15]
  GI50: > 100 µM
[16]
  GI50: > 100 µM (inactive)
[17]
  GI50: > 100 µM (inactive)
[18]
  GI50: > 100 µM (inactive)
[19]
  GI50: > 100 µM (inactive)
[20]
  GI50: > 100 µM (inactive)
[21]
  GI50: > 100 µM (inactive)
[23]
  GI50: > 100 µM (inactive)
[25]
  GI50: > 100 µM (inactive)
[26]
  GI50: > 100 µM (inactive)
[27]
  GI50: > 100 µM (inactive)
[28]
  GI50: > 100 µM (inactive)
[29]
  GI50: > 100 µM (inactive)
[30]
  GI50: > 100 µM (inactive)
[31]
  GI50: > 100 µM (inactive)
[32]
  GI50: > 100 µM (inactive)
[33]
  GI50: > 100 µM (inactive)
[34]
  GI50: > 100 µM (inactive)
[35]
  GI50: > 100 µM (inactive)
[37]
  GI50: > 100 µM (inactive)
[38]
  GI50: > 100 µM (inactive)
[39]
  GI50: > 100 µM (inactive)
[40]
  GI50: > 100 µM (inactive)
[59]
  GI50: > 100 µM (inactive)
[41]
  GI50: > 100 µM (inactive)
[42]
  GI50: > 100 µM (inactive)
[43]
  GI50: > 100 µM (inactive)
[44]
  GI50: > 100 µM (inactive)
[45]
  GI50: > 100 µM (inactive)
[46]
  GI50: > 100 µM (inactive)
[47]
  GI50: > 100 µM (inactive)
[48]
  GI50: > 100 µM (inactive)
[49]
  GI50: > 100 µM (inactive)
[50]
  GI50: > 100 µM (inactive)
[51]
  GI50: > 100 µM (inactive)
[52]
  GI50: > 100 µM (inactive)
[53]
  GI50: > 100 µM (inactive)
[54]
  GI50: > 100 µM (inactive)
[55]
  GI50: > 100 µM (inactive)
[56]
  GI50: > 100 µM (inactive)
[57]
  GI50: > 100 µM (inactive)
[58]
  GI50: > 100 µM (inactive)
